Source: ChEMBL document CHEMBL5050844 (2019)

Experiments:
Format in all cases: functional, T cell line
[1] = Induction of anti-CD3 antibodies-stimulated human T cell activation at 1 uM assessed fold increase in CD25 expression measured by ELISA assay; note: reference of the scale not given here
[2] = Induction of anti-CD3/CD28 antibodies-stimulated human T cell activation at 1 uM assessed fold increase in CD25 expression measured by ELISA assay
[3] = Induction of anti-CD3 antibodies-stimulated human T cell activation at 8 uM assessed fold increase in IL-2 secretion measured by ELISA assay; note: reference of the scale not given here
[4] = Induction of anti-CD3/CD28 antibodies-stimulated human T cell activation at 0.3 uM assessed fold increase in IL-2 secretion measured by ELISA assay
[5] = Induction of anti-CD3/CD28 antibodies-stimulated human T cell activation at 4 uM assessed fold increase in IL-2 secretion measured by ELISA assay
[6] = Induction of anti-CD3 antibodies-stimulated human T cell activation at 8 uM assessed fold increase in CD25 expression measured by ELISA assay; note: reference of the scale not given here
[7] = Induction of anti-CD3/CD28 antibodies-stimulated human T cell activation at 0.3 uM assessed fold increase in CD25 expression measured by ELISA assay
[8] = Induction of anti-CD3 antibodies-stimulated human T cell activation at 1 uM assessed fold increase in IL-2 secretion measured by ELISA assay; note: reference of the scale not given here
[9] = Induction of anti-CD3/CD28 antibodies-stimulated human T cell activation at 1 uM assessed fold increase in IL-2 secretion measured by ELISA assay
[10] = Induction of anti-CD3/CD28 antibodies-stimulated human T cell activation at 4 uM assessed fold increase in CD25 expression measured by ELISA assay

Row | SMILES | fold change (FC) [1] | fold change (FC) [2] | fold change (FC) [3] | fold change (FC) [4] | fold change (FC) [5] | fold change (FC) [6] | fold change (FC) [7] | fold change (FC) [8] | fold change (FC) [9] | fold change (FC) [10]
1 | Cc1cccc2nc(C(=O)Nc3cccc([C@H](C)Sc4nncn4C)c3)ccc12 | 0.801 | 1.01 | 0.101 | 2.51 | >=7.5 | 0.801 | 1.01 | <=0.05 | 5 | 1.01
2 | C[C@H](Sc1nncn1C)c1cccc(NC(=O)c2cc3c(Cl)cccc3[nH]2)c1 | 0.601 | 1.01 | >=0.201 | 1.01 | 2.51 | 0.801 | <=1 | <=0.05 | 1.01 | 1.01
3 | C[C@H](Cc1nncn1C)c1cccc(N2Cc3c(Br)cccc3C2=O)c1 | 0.801 | 1.31 | >=0.201 | 2.51 | >=7.5 | 0.801 | 1.01 | >=0.201 | 5 | 1.51
4 | Cn1cnnc1C(F)(F)C(C)(F)c1cccc(N2Cc3c(cccc3C(F)(F)F)C2=O)c1 (racemic) | 0.601 | 1.01 | >=0.201 | <=1 | 1.01 | 0.601 | 1.01 | >=0.201 | <=1 | 1.01
5 | Cc1ccc(C(=O)Nc2cccc([C@H](C)Cc3nnc[nH]3)c2)nc1C1CC1 | <=0.6 | 1.51 | <=0.05 | 1.01 | 1.01 | <=0.6 | 1.51 | <=0.05 | 1.01 | >=1.76
6 | Cn1cnnc1CC(c1cccc(N2Cc3c(cccc3C(F)(F)F)C2=O)c1)C(F)(F)F (stereo not given) | 0.801 | 1.01 | 0.151 | <=1 | 1.01 | 0.801 | 1.01 | 0.101 | <=1 | 1.01
7 | C[C@H](CO)Nc1cc([C@H](C)Cc2nncn2C)cc(N2Cc3c(cccc3C(F)(F)F)C2=O)n1 | 0.801 | 1.01 | >=0.201 | 1.01 | 5 | >=1.001 | 1.01 | 0.051 | 2.51 | 1.31
8 | Cc1cc(C(=O)Nc2cccc([C@H]3C[C@H]3c3nncn3C)c2)nc(C2CC2)n1 | 0.801 | 1.01 | >=0.201 | 1.01 | 5 | >=1.001 | 1.01 | 0.101 | 2.51 | 1.01
9 | Cn1cnnc1[C@@H]1C[C@@H]1c1cccc(NC(=O)c2nc3c(C(F)(F)F)cccc3[nH]2)c1 | 0.601 | 1.01 | >=0.201 | 1.01 | 2.51 | 0.801 | 1.01 | 0.101 | 1.01 | 1.01
10 | Cc1nc2cc([C@H](C)Sc3nncn3C)cc(NC(=O)c3cccc(C(F)(F)F)n3)c2o1 | 0.601 | 1.51 | >=0.201 | 2.51 | >=7.5 | >=1.001 | 1.31 | <=0.05 | 5 | >=1.76
11 | CC1OCC1Oc1cc([C@H](C)Cc2nncn2C)cc(N2Cc3c(cccc3C(F)(F)F)C2=O)n1 (stereo not given in full) | 0.601 | 1.01 | 0.101 | 1.01 | 1.01 | 0.601 | 1.01 | 0.051 | 1.01 | 1.01
12 | C[C@H](Cc1nncn1C)c1cccc(N2Cc3c(cc([C@@H]4CCCNC4)cc3C(F)(F)F)C2=O)c1 | 0.601 | 1.31 | >=0.201 | 2.51 | 5 | >=1.001 | 1.01 | 0.101 | 5 | 1.51
13 | C[C@H](Sc1nncn1C)c1cccc(NC(=O)c2cc(C(C)(C)O)cc(C(F)(F)F)n2)c1 | 0.601 | 1.01 | <=0.05 | <=1 | 1.01 | >=1.001 | 1.01 | <=0.05 | <=1 | 1.01
14 | Cn1cnnc1C[C@]1(c2cccc(N3Cc4c(cccc4C(F)(F)F)C3=O)c2)C[C@H](CO)C1 | 0.801 | 1.51 | >=0.201 | 1.01 | 5 | >=1.001 | 1.31 | 0.101 | 2.51 | 1.51
15 | C[C@H](Sc1nncn1C)c1cccc(NC(=O)c2cc(C(F)(F)F)ccn2)c1 | 0.601 | 1.01 | 0.101 | <=1 | 1.01 | >=1.001 | 1.01 | <=0.05 | 1.01 | 1.01
16 | Cc1cc(C)nc(C(=O)Nc2cccc([C@H](C)Sc3nncn3C)c2)c1 | <=0.6 | 1.01 | <=0.05 | 2.51 | >=7.5 | 0.801 | 1.01 | <=0.05 | 5 | 1.01
17 | C[C@H](Cc1nncn1C)c1cccc(NC(=O)c2cncc(C(F)(F)F)n2)c1 | 0.601 | >=1.76 | 0.051 | 1.01 | 5 | >=1.001 | >=1.76 | 0.051 | 2.51 | >=1.76
18 | C[C@H](Cc1nnc[nH]1)c1cccc(N2Cc3c(cccc3C(F)(F)F)C2=O)c1 | <=0.6 | 1.31 | <=0.05 | <=1 | 1.01 | <=0.6 | 1.01 | <=0.05 | <=1 | 1.31
19 | Cc1ccc(C(=O)Nc2cccc([C@H](C)Sc3nncn3C)c2)nc1C(F)(F)F | 0.601 | 1.01 | <=0.05 | <=1 | 1.01 | >=1.001 | <=1 | <=0.05 | <=1 | 1.01
20 | C[C@H](O)CNc1cc([C@H](C)Cc2nncn2C)cc(N2Cc3c(cccc3C(F)(F)F)C2=O)n1 | 0.601 | 1.01 | 0.101 | 1.01 | 1.01 | 0.601 | 1.01 | 0.051 | 1.01 | 1.01
21 | C[C@H](Sc1nncn1C)c1cccc(NC(=O)c2cc(C3(O)COC3)cc(C(F)(F)F)n2)c1 | <=0.6 | 1.01 | <=0.05 | <=1 | <=1 | 0.601 | <=1 | <=0.05 | <=1 | 1.01
22 | C[C@H](Cc1nncn1C)c1cccc(NC(=O)c2cc(C(=O)N3C[C@@H](O)C[C@H]3C)ccn2)c1 | <=0.6 | 1.01 | 0.101 | <=1 | <=1 | <=0.6 | 1.01 | 0.101 | <=1 | 1.51
